# Assay results from article PMC5207512, “Inhibition of Helicobacter pylori and Its Associated Urease by Palmatine: Investigation on the Potential Mechanism” (PLoS ONE, 2017).
# Values joined by “and” are separate entries in the source; they are usually repeats but may differ in a detail not shown here. Identical values can stand only once.
# What was measured:
# HPU = system: HPU; set-up: method as in PMID 26669678; conditions: cited from earlier work
# JBU = system: JBU; set-up: method as in PMID 26669678; conditions: cited from earlier work
# [1] = set-up: method as in PMID 23159469; conditions: among berberine, coptisine, palmatine and epiberberine; in vitro and in vivo assays; cited from earlier work
# [2] = system: H. pylori ICDC 111001 (clinical isolate); test: MIC by agar dilution method; type: cell-based; conditions: Helicobacter pylori
# Description: (§1) A total of four H. pylori strains were studied, including three reference strains ATCC 43504, NCTC 26695 and SS1 gifted from Professor Richard Ferrero, Monash University, Australia, and one clinical isolate ICDC 111001 obtained from Professor Zhang Jianzhong, Chinese Center of Disease Control and Prevention. […] The MICs of Pal against the four H. pylori strains were evaluated by using agar dilution method. […] H. pylori strains were harvested and resuspended in PBS (1.0–2.0 McFarland were defined based on the strain properties). […] After 72 h, the MIC values were determined as the lowest concentration at which there was no strain growth judged by visual examination. Metronidazole was used as the positive control. The experiments were evaluated under two different pH (7.4 and 5.3) conditions and repeated twice.
# H. pylori NCTC 26695 = test: MIC by agar dilution method; type: cell-based; conditions: Helicobacter pylori
# Description: as §1
# H. pylori ATCC 43504 = test: MIC by agar dilution method; type: cell-based; conditions: Helicobacter pylori
# Description: as §1
# H. pylori SS1 = test: MIC by agar dilution method; type: cell-based; conditions: Helicobacter pylori
# Description: as §1
# H. pylori urease (HPU) = target: T1, H. pylori urease (HPU) (Helicobacter pylori, UniProt P69996); test: biochemical; type: biochemical; conditions: Fig 4C HPU; BA or NaF 5 mM preincubated 20 min, Pal 0.5 mM 20 min
# T1 construct: HPU was prepared as previously described; made in house
# T1 sequence (P14916 whole entry): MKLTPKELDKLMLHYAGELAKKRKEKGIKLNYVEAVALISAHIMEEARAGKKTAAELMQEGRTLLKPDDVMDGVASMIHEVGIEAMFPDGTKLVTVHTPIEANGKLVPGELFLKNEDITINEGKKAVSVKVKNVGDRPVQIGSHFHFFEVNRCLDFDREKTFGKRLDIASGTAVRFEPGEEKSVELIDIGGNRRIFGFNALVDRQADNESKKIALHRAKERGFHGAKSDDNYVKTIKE
# T1 sequence (P69996 whole entry): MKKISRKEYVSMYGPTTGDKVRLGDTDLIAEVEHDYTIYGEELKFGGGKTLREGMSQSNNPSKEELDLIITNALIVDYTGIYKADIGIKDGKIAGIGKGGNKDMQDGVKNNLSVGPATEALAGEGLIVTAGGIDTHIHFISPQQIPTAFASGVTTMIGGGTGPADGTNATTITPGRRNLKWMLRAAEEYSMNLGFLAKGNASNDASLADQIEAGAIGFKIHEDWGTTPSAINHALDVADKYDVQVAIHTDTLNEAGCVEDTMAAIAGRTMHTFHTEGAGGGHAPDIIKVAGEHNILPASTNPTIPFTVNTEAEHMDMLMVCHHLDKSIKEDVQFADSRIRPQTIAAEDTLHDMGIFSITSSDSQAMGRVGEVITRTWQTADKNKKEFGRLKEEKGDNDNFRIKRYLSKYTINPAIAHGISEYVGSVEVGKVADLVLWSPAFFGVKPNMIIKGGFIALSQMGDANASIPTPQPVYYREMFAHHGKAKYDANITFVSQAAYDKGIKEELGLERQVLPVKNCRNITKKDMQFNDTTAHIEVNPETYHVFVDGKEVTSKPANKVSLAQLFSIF
# Description: (§2) For the protection with inorganic compounds (BA and NaF), 0.25 mg/mL urease (HPU or JBU) was preincubated with 5 mM BA or 5 mM NaF for 20 min. Following preincubation, each sample of the protected urease was incubated with 0.5 mM Pal for 20 min. The samples containing a proper volume of respective buffer instead of Pal served as comparison with the abovementioned systems. The experiments were triply performed.
# jack bean urease (JBU) = target: T2, jack bean urease (JBU) (Canavalia ensiformis, UniProt P07374); test: biochemical; type: biochemical; conditions: Fig 4D JBU; BA or NaF 5 mM preincubated 20 min, Pal 0.5 mM 20 min
# T2 construct: Urease from jack bean (Canavalia ensiformis, JBU); purchased Sigma-Aldrich (St Louis, MO, USA) type III (catalogue number not given)
# T2 sequence (P07374 whole entry, looked up): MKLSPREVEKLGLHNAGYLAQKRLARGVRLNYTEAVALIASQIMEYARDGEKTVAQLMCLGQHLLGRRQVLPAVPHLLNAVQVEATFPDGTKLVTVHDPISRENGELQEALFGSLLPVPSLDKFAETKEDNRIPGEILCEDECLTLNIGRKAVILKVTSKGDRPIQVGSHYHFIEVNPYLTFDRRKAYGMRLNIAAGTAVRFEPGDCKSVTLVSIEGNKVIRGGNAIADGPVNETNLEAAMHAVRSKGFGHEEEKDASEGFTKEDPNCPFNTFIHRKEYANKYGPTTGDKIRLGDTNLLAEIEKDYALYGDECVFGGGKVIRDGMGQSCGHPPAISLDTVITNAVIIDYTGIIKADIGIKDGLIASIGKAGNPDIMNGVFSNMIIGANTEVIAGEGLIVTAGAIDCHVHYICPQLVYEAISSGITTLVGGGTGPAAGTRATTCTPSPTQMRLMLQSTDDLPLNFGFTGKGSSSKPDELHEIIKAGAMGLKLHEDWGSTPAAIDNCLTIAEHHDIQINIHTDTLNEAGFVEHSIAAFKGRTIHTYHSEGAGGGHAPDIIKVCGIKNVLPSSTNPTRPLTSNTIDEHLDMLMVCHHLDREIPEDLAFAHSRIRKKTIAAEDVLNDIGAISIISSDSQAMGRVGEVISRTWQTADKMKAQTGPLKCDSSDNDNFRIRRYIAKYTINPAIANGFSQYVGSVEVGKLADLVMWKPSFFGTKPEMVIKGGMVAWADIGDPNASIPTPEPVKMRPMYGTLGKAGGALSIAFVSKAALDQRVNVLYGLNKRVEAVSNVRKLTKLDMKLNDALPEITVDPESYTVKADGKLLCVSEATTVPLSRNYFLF
# Description: as §2
smiles,measurement,setting,value
COc1ccc2cc3[n+](cc2c1OC)CCc1cc2c(cc1-3)OCO2 [berberine],IC50,HPU,10.2 ± 1.1 mM
same,IC50,JBU,> 13 mM
same,toxicity,[1],relatively more toxic
"Cc1ncc([N+](=O)[O-])n1CCO [Met, Metronidazole]",MIC,"[2]; pH 5.3, 72 h",2 mg/L
same,MIC,"[2]; pH 7.4, 72 h",2 mg/L
same,MIC,"H. pylori NCTC 26695; NCTC26695, pH 5.3, 72 h",2 mg/L
same,MIC,"H. pylori NCTC 26695; NCTC26695, pH 7.4, 72 h",2 mg/L
same,MIC,"H. pylori ATCC 43504; ATCC43504, pH 5.3, 72 h",0.5 mg/L
same,MIC,"H. pylori ATCC 43504; ATCC43504, pH 7.4, 72 h",0.5 mg/L
same,MIC,"H. pylori SS1; pH 5.3, 72 h",0.5 mg/L
same,MIC,"H. pylori SS1; pH 7.4, 72 h",0.5 mg/L
"OB(O)O [BA, boric acid]",Residual urease activity (percent of control),H. pylori urease (HPU),98.6% and 98.6098% and 99.1614% and 98.0689%
same,Residual urease activity (percent of control),jack bean urease (JBU),86.6% and 87.7694% and 84.1052% and 87.7801%
"[F-].[Na+] [NaF, sodium fluoride]",Residual urease activity (percent of control),H. pylori urease (HPU),54.6% and 54.7779% and 54.0024% and 55.0707%
same,Residual urease activity (percent of control),jack bean urease (JBU),42.9% and 43.7771% and 43.724% and 41.2392%
